Measurements: patent US20240408085A1, “COMPOUND FOR DEGRADATION OF BCL-2 FAMILY PROTEINS AND MEDICAL APPLICATION THEREOF” (XIZANG HAISCO PHARMACEUTICAL CO., LTD., priority 2021, published 2024)

These compounds were tested on MOLT-4 cells (assay: Cell proliferation activity in MOLT-4 cells (72 h, cell viability luminescence)). Conditions: Homo sapiens, read-out: IC50 for the inhibition of MOLT-4 cell proliferation.
Type: cell-based, human
Method: MOLT-4 cells are acute lymphoblastic leukemia cell lines in humans. The cells were purchased from ATCC. Culture conditions: RPMI-1640+10% FBS+1% penicillin-streptomycin solution. The cells were cultured in a 37° C., 5% CO2 incubator. The cells were plated in a 96-well plate, with 5×10^3 cells/well. After plating, compounds at different concentrations were added and cultured in a 37° C., 5% CO2 incubator for 72 h. After the completion of culture, a reagent (Promega, G7573) for detecting the cell viability was added. The mixture was uniformly mixed for 2 minutes and then incubated at room temperature for 10 minutes. The luminescence signal was detected with a multimode plate reader (BMG, PHERAstar FSX). The luminescence readings were processed using GraphPad Prism 8.0 software and the IC50 values of the compounds for the inhibition of cell proliferation and the maximum inhibition rate were calculated according to formula (2) and formula (3), respectively, wherein Tadministration denotes the cell signal readings obtained after incubation with the compounds for 72 h, and Tvehicle denotes the cell signal readings obtained after incubation with the vehicle control for 72 h.
Calculation of Max inhibition %: after the processing according to formula (2), the inhibition rate of the compounds at the highest concentration was calculated.

**Q.** For `Cc1ncsc1-c1ccc([C@H](C)NC(=O)[C@@H]2C[C@@H](O)CN2C(=O)[C@@H](NC(=O)CCCCCCCC(=O)N2C[C@H]3CN(CC[C@H](CSc4ccccc4)Nc4ccc(S(=O)(=O)NC(=O)c5ccc(N6CCN(CC7=C(c8ccc(Cl)cc8)CCC(C)(C)C7)CC6)cc5)cc4S(=O)(=O)C(F)(F)F)C[C@H]3C2)C(C)(C)C)cc1` [Compound 16, cis-(2S,4R)-1-((S)-2-(9-(5-((R)-3-((4-(N-(4-(4-((4′-chloro-4,4-dimethyl-3,4,5,6-tetrahydro-[1,1′-biphenyl]-2-yl)methyl)piperazin-1-yl)benzoyl)sulfamoyl)-2-((trifluoromethyl)sulfonyl)phenyl)amino)-4-(phenylthio)butyl)hexahydropyrrolo[3,4-c]pyrrol-2(1H)-yl)-9-oxononanamido)-3,3-dimethylbutanoyl)-4-hydroxy-N—((S)-1-(4-(4-methylthiazol-5-yl)phenyl)ethyl)pyrrolidine-2-carboxamide], which IC50 is on record?
**A.** < 500 nM

**Q.** How did the IC50 turn out when `Cc1ncsc1-c1ccc([C@H](C)NC(=O)[C@@H]2C[C@@H](O)CN2C(=O)[C@@H](NC(=O)CCCCCCC(=O)N2C[C@H]3CN(CC[C@H](CSc4ccccc4)Nc4ccc(S(=O)(=O)NC(=O)c5ccc(N6CCN(CC7=C(c8ccc(Cl)cc8F)CCC8(CC8)C7)CC6)cc5)cc4S(=O)(=O)C(F)(F)F)C[C@H]3C2)C(C)(C)C)cc1` [Compound 23, cis-(2S,4R)-1-((S)-2-(8-(5-((R)-3-((4-(N-(4-(4-((6-(4-chloro-2-fluorophenyl)spiro[2.5]oct-5-en-5-yl)methyl)piperazin-1-yl)benzoyl)sulfamoyl)-2-((trifluoromethyl)sulfonyl)phenyl)amino)-4-(phenylthio)butyl)hexahydropyrrolo[3,4-c]pyrrol-2(1H)-yl)-8-oxooctanamido)-3,3-dimethylbutanoyl)-4-hydroxy-N—((S)-1-(4-(4-methylthiazol-5-yl)phenyl)ethyl)pyrrolidine-2-carboxamide] was run?
**A.** < 500 nM

**Q.** How did the IC50 turn out when `Cc1ncsc1-c1ccc([C@H](C)NC(=O)[C@@H]2C[C@@H](O)CN2C(=O)[C@@H](NC(=O)CCCCCCC(=O)N2C[C@@H]3C[C@H]2CN3CC[C@H](CSc2ccccc2)Nc2ccc(S(=O)(=O)NC(=O)c3ccc(N4CCN(CC5=C(c6ccc(Cl)cc6F)CCC6(CC6)C5)CC4)cc3)cc2S(=O)(=O)C(F)(F)F)C(C)(C)C)cc1` [Compound 30, (2S,4R)-1-((S)-2-(8-((1S,4S)-5-((R)-3-((4-(N-(4-(4-((6-(4-chloro-2-fluorophenyl)spiro[2.5]oct-5-en-5-yl)methyl)piperazin-1-yl)benzoyl)sulfamoyl)-2-((trifluoromethyl)sulfonyl)phenyl)amino)-4-(phenylthio)butyl)-2,5-diazabicyclo[2.2.1]heptan-2-yl)-8-oxooctanamido)-3,3-dimethylbutanoyl)-4-hydroxy-N—((S)-1-(4-(4-methylthiazol-5-yl)phenyl)ethyl)pyrrolidine-2-carboxamide] was run?
**A.** < 500 nM

**Q.** Which IC50 does the source give for `Cc1ncsc1-c1ccc([C@H](C)NC(=O)[C@@H]2C[C@@H](O)CN2C(=O)[C@@H](NC(=O)CCCCCC(=O)N2C[C@@H]3C[C@H]2CN3CC[C@H](CSc2ccccc2)Nc2ccc(S(=O)(=O)NC(=O)c3ccc(N4CCN(CC5=C(c6ccc(Cl)cc6F)CCCCC5)CC4)cc3)cc2S(=O)(=O)C(F)(F)F)C(C)(C)C)cc1` [Compound 37, (2S,4R)-1-((S)-2-(7-((1S,4S)-5-((R)-3-((4-(N-(4-(4-((2-(4-chloro-2-fluorophenyl)cyclohept-1-en-1-yl)methyl)piperazin-1-yl)benzoyl)sulfamoyl)-2-((trifluoromethyl)sulfonyl)phenyl)amino)-4-(phenylthio)butyl)-2,5-diazabicyclo[2.2.1]heptan-2-yl)-7-oxoheptanamido)-3,3-dimethylbutanoyl)-4-hydroxy-N—((S)-1-(4-(4-methylthiazol-5-yl)phenyl)ethyl)pyrrolidine-2-carboxamide] here?
**A.** < 500 nM

**Q.** How did the IC50 turn out when `Cc1ncsc1-c1ccc([C@H](C)NC(=O)[C@@H]2C[C@@H](O)CN2C(=O)[C@@H](NC(=O)CCCCCCC(=O)N2CCN(CC[C@H](CSc3ccccc3)Nc3ccc(S(=O)(=O)NC(=O)c4ccc(N5CCN(CC6=C(c7ccc(Cl)cc7F)CCCCC6)CC5)cc4)cc3S(=O)(=O)C(F)(F)F)CC2)C(C)(C)C)cc1` [Compound 36, (2S,4R)-1-((S)-2-(8-(4-((R)-3-((4-(N-(4-(4-((2-(4-chloro-2-fluorophenyl)cyclohept-1-en-1-yl)methyl)piperazin-1-yl)benzoyl)sulfamoyl)-2-((trifluoromethyl)sulfonyl)phenyl)amino)-4-(phenylthio)butyl)piperazin-1-yl)-8-oxooctanamido)-3,3-dimethylbutanoyl)-4-hydroxy-N—((S)-1-(4-(4-methylthiazol-5-yl)phenyl)ethyl)pyrrolidine-2-carboxamide] was run?
**A.** < 500 nM

**Q.** For `Cc1ncsc1-c1ccc([C@H](C)NC(=O)[C@@H]2C[C@@H](O)CN2C(=O)[C@@H](NC(=O)CCCCCC(=O)N2C[C@@H]3C[C@H]2CN3CC[C@H](CSc2ccccc2)Nc2ccc(S(=O)(=O)NC(=O)c3ccc(N4CCN(CC5=C(c6ccc(Cl)cc6)CCCCC5)CC4)cc3)cc2S(=O)(=O)C(F)(F)F)C(C)(C)C)cc1` [Compound 33, (2S,4R)-1-((S)-2-(7-((1S,4S)-5-((R)-3-((4-(N-(4-(4-((2-(4-chlorophenyl)cyclohept-1-en-1-yl)methyl)piperazin-1-yl)benzoyl)sulfamoyl)-2-((trifluoromethyl)sulfonyl)phenyl)amino)-4-(phenylthio)butyl)-2,5-diazabicyclo[2.2.1]heptan-2-yl)-7-oxoheptanamido)-3,3-dimethylbutanoyl)-4-hydroxy-N—((S)-1-(4-(4-methylthiazol-5-yl)phenyl)ethyl)pyrrolidine-2-carboxamide], which IC50 is on record?
**A.** < 500 nM

**Q.** Which IC50 does the source give for `Cc1ncsc1-c1ccc([C@H](C)NC(=O)[C@@H]2C[C@@H](O)CN2C(=O)[C@@H](NC(=O)CCCCCC(=O)N2C[C@@H]3C[C@H]2CN3CC[C@H](CSc2ccccc2)Nc2ccc(S(=O)(=O)NC(=O)c3ccc(N4CCN(CC5=C(c6ccc(Cl)cc6F)CCC(C)(C)C5)CC4)cc3)cc2S(=O)(=O)C(F)(F)F)C(C)(C)C)cc1` [Compound 20, (2S,4R)-1-((S)-2-(7-((1S,4S)-5-((R)-3-((4-(N-(4-(4-((4′-chloro-2′-fluoro-4,4-dimethyl-3,4,5,6-tetrahydro-[1,1′-biphenyl]-2-yl)methyl)piperazin-1-yl)benzoyl)sulfamoyl)-2-((trifluoromethyl)sulfonyl)phenyl)amino)-4-(phenylthio)butyl)-2,5-diazabicyclo[2.2.1]heptan-2-yl)-7-oxoheptanamido)-3,3-dimethylbutanoyl)-4-hydroxy-N—((S)-1-(4-(4-methylthiazol-5-yl)phenyl)ethyl)pyrrolidine-2-carboxamide] here?
**A.** < 500 nM

**Q.** With `Cc1ncsc1-c1ccc([C@H](C)NC(=O)[C@@H]2C[C@@H](O)CN2C(=O)[C@@H](NC(=O)CCCCCC(=O)N2C[C@H]3CN(CC[C@H](CSc4ccccc4)Nc4ccc(S(=O)(=O)NC(=O)c5ccc(N6CCN(CC7=C(c8ccc(Cl)cc8)CCC8(CC8)C7)CC6)cc5)cc4S(=O)(=O)C(F)(F)F)C[C@H]3C2)C(C)(C)C)cc1` [Compound 18, cis-(2S,4R)-1-((S)-2-(7-(5-((R)-3-((4-(N-(4-(4-((6-(4-chlorophenyl)spiro[2.5]oct-5-en-5-yl)methyl)piperazin-1-yl)benzoyl)sulfamoyl)-2-((trifluoromethyl)sulfonyl)phenyl)amino)-4-(phenylthio)butyl)hexahydropyrrolo[3,4-c]pyrrol-2(1H)-yl)-7-oxoheptanamido)-3,3-dimethylbutanoyl)-4-hydroxy-N—((S)-1-(4-(4-methylthiazol-5-yl)phenyl)ethyl)pyrrolidine-2-carboxamide] as the compound, how does the IC50 read?
**A.** < 500 nM

**Q.** For `Cc1ncsc1-c1ccc([C@H](C)NC(=O)[C@@H]2C[C@@H](O)CN2C(=O)[C@@H](NC(=O)CCCCCC(=O)N2CCN(CC[C@H](CSc3ccccc3)Nc3ccc(S(=O)(=O)NC(=O)c4ccc(N5CCN(CC6=C(c7ccc(Cl)cc7)CCC(C)(C)C6)CC5)nc4)cc3S(=O)(=O)C(F)(F)F)CC2)C(C)(C)C)cc1` [Compound 7, 6-(4-((4′-chloro-4,4-dimethyl-3,4,5,6-tetrahydro-[1,1′-biphenyl]-2-yl)methyl)piperazin-1-yl)-N-((4-(((R)-4-(4-(7-(((S)-1-((2S,4R)-4-hydroxy-2-(((S)-1-(4-(4-methylthiazol-5-yl)phenyl)ethyl)carbamoyl)pyrrolidin-1-yl)-3,3-dimethyl-1-oxobutan-2-yl)amino)-7-oxoheptanoyl)piperazin-1-yl)-1-(phenylthio)butan-2-yl)amino)-3-((trifluoromethyl)sulfonyl)phenyl)sulfonyl)nicotinamide], which IC50 is on record?
**A.** < 500 nM

**Q.** `Cc1ncsc1-c1ccc([C@H](C)NC(=O)[C@@H]2C[C@@H](O)CN2C(=O)[C@@H](NC(=O)CCCCCCC(=O)N2C[C@@H]3C[C@H]2CN3CC[C@H](CSc2ccccc2)Nc2ccc(S(=O)(=O)NC(=O)c3ccc(N4CCN(CC5=C(c6ccc(Cl)cc6)CCC6(CC6)C5)CC4)cc3)cc2S(=O)(=O)C(F)(F)F)C(C)(C)C)cc1` [Compound 28, (2S,4R)-1-((S)-2-(8-((1S,4S)-5-((R)-3-((4-(N-(4-(4-((6-(4-chlorophenyl)spiro[2.5]oct-5-en-5-yl)methyl)piperazin-1-yl)benzoyl)sulfamoyl)-2-((trifluoromethyl)sulfonyl)phenyl)amino)-4-(phenylthio)butyl)-2,5-diazabicyclo[2.2.1]heptan-2-yl)-8-oxooctanamido)-3,3-dimethylbutanoyl)-4-hydroxy-N—((S)-1-(4-(4-methylthiazol-5-yl)phenyl)ethyl)pyrrolidine-2-carboxamide] was tested. Which IC50 did it give?
**A.** < 500 nM
